Some test systems named below: PC-3 prostate; OVCAR-8 ovarian; ACHN renal; OVCAR-4 ovarian; UACC-257 melanoma; RPMI-8226 leukemia; HCC-2998 colon; SNB-75 CNS.
Holding throughout (test): growth of human tumour cells (NCI), 48 h

TGI and GI50 data for 27 molecules are collected here from PubChem BioAssay (NCI).

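Briefly, cells in 96-well plates were exposed to five compound concentrations for 48 h, and endpoints were estimated by linear interpolation. GI50 is the concentration that inhibits growth by half. TGI denotes the concentration required for complete inhibition of growth.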 Bounds are passed on as bounds.

For the molecule `CC1(C(=O)O)CCCC1C(=O)O` (stereo unspecified), the TGI in the experiment with PC-3 prostate, in the experiment with OVCAR-8 ovarian, with ACHN renal, in the experiment with OVCAR-4 ovarian, in the experiment on UACC-257 melanoma and in the experiment on RPMI-8226 leukemia was over 100 µM throughout.

Regarding `CCC(C(=O)c1ccc(OC)c(OC)c1)N(C(=O)C(F)(F)F)C(C)c1ccccc1` (stereo unspecified), the TGI in the experiment with HCC-2998 colon, with PC-3 prostate, with OVCAR-8 ovarian, in the experiment with ACHN renal, in the experiment on UACC-257 melanoma and in the experiment with RPMI-8226 leukemia was over 100 µM in each case.

With `CCC(C)C(=O)OC1CC2(C)C(c3ccoc3)OC(=O)CC23OC2(C)OC34C(OC(=O)C(C)C)C3(O)C(OC(=O)C5(C)OC5C)C5(C)CC3(O)C(C)(C5CC(=O)OC)C14O2` (stereo unspecified), the TGI with HCC-2998 colon, in the experiment on PC-3 prostate, with OVCAR-8 ovarian, in the experiment on ACHN renal, with OVCAR-4 ovarian and in the experiment on SNB-75 CNS was over 100 µM each time. In addition, in the experiment with UACC-257 melanoma, the TGI was over 100 µM.

Turning to `O=C(Cc1ccc([N+](=O)[O-])cc1)OCC#CCOC(=O)Cc1ccc([N+](=O)[O-])cc1`, the TGI in the experiment with PC-3 prostate, in the experiment with OVCAR-8 ovarian, in the experiment on ACHN renal, with OVCAR-4 ovarian, in the experiment with SNB-75 CNS and with UACC-257 melanoma was over 10 µM throughout.

Regarding `CCC(=O)Oc1c2ccsc2c(OC(=O)CC)c2ccsc12`, the TGI turned out to be 3.49 µM in the experiment with HCC-2998 colon; 1.4 µM in the experiment with OVCAR-8 ovarian; 5.49 µM in the experiment on ACHN renal; 2.39 µM with OVCAR-4 ovarian; 0.341 µM with SNB-75 CNS; 0.333 µM in the experiment on UACC-257 melanoma.

As to `Nc1ccc2[nH]c(-c3cccc(Cl)c3)cc(=O)c2c1`, the TGI in the experiment on HCC-2998 colon is 54.4 µM; in the experiment on PC-3 prostate, over 100 µM; in the experiment on OVCAR-8 ovarian, over 100 µM; with ACHN renal, over 100 µM; in the experiment on OVCAR-4 ovarian it was over 100 µM; in the experiment with SNB-75 CNS it was over 100 µM. Besides, the TGI in the experiment with UACC-257 melanoma is over 100 µM. Moreover, the GI50 in the experiment on OVCAR-4 ovarian is over 100 µM.

Regarding `O=c1[nH]nc(-c2ccccc2)c2[nH]c(-c3ccccc3)cc12`, the TGI with OVCAR-8 ovarian, in the experiment on OVCAR-4 ovarian, in the experiment with SNB-75 CNS and with RPMI-8226 leukemia was over 100 µM each time.

For `Brc1cccc(N=NN2CCCC2)c1`, the TGI in the experiment with PC-3 prostate, in the experiment on OVCAR-8 ovarian, with ACHN renal, in the experiment on OVCAR-4 ovarian, with SNB-75 CNS and in the experiment with UACC-257 melanoma was over 100 µM throughout. The TGI with RPMI-8226 leukemia is 58.8 µM.

As for `CC(=O)OCC(OC(C)=O)C1C[C@H]2O[C@@H]3[C@H](C[C@H]2O1)O[C@@]1(C[C@@H]3C)C[C@H](C)[C@@H]2O[C@]3(C[C@@H]2O1)C[C@H]1O[C@H]2[C@H](C)[C@H]4OC(=O)CC5CC[C@H]6OC7[C@H]8O[C@]9(CC[C@H]%10CC(O)(CO)[C@H](CC[C@H]%11C[C@@H](C)C(O)(CO)C(C[C@@H]4O[C@H]2C[C@H]1O3)O%11)O%10)CC8O[C@@H]7[C@@H](O9)[C@H]6O5` (stereo partly specified), the TGI in the experiment with PC-3 prostate was over 1 µM; in the experiment with OVCAR-8 ovarian, over 0.271 µM; in the experiment on ACHN renal, over 1 µM; in the experiment with OVCAR-4 ovarian, over 1 µM; in the experiment with SNB-75 CNS it was over 1 µM; in the experiment on UACC-257 melanoma, over 1 µM.

Regarding `CCCCc1ccc(Nc2nc3c(ncn3COCCO)c(=O)[nH]2)cc1`, the TGI in the experiment on HCC-2998 colon, in the experiment on OVCAR-8 ovarian, in the experiment on ACHN renal, in the experiment on OVCAR-4 ovarian, in the experiment with SNB-75 CNS and in the experiment on UACC-257 melanoma was over 100 µM in each case. The molecule also showed a TGI with RPMI-8226 leukemia of over 100 µM.

For `COC(=O)Cc1c([C@H]2[C@H](CC(=O)OC)c3ccccc3N2C(C)=O)[nH]c2ccccc12`, the TGI with PC-3 prostate, in the experiment with OVCAR-8 ovarian, in the experiment on ACHN renal, in the experiment on SNB-75 CNS, in the experiment on UACC-257 melanoma and in the experiment on RPMI-8226 leukemia was over 100 µM in each case.

Consider `c1ccc2c3c(c(N4CCOCC4)nc2c1)CCCC3`, for which the TGI in the experiment with HCC-2998 colon is over 100 µM; with PC-3 prostate, over 100 µM; in the experiment with OVCAR-8 ovarian it was over 100 µM; with ACHN renal, over 100 µM; in the experiment with OVCAR-4 ovarian, over 100 µM; with SNB-75 CNS, 83.1 µM. In the experiment with UACC-257 melanoma, this molecule came in with a TGI of over 100 µM.

On to `OC1(c2ccc(Cl)cc2)c2ccc3ccccc3c2C2=N[C@H]3CCCC[C@@H]3N21` (stereo partly specified), for which the TGI in the experiment with PC-3 prostate was 51.2 µM; with OVCAR-8 ovarian it was 3.45 µM; with ACHN renal, over 100 µM; in the experiment with OVCAR-4 ovarian, over 100 µM; with RPMI-8226 leukemia, 31 µM.

Take `O=c1oc2cc(O)ccc2c(O)c1C(c1ccc(C(c2c(O)c3ccc(O)cc3oc2=O)c2c(O)c3ccc(O)cc3oc2=O)cc1)c1c(O)c2ccc(O)cc2oc1=O`: the TGI in the experiment on HCC-2998 colon, in the experiment with PC-3 prostate, in the experiment on OVCAR-8 ovarian, in the experiment with OVCAR-4 ovarian, in the experiment with SNB-75 CNS and in the experiment on UACC-257 melanoma was over 100 µM in each case.

Regarding `FC(F)(F)c1ccc2nc3n(c2c1)C(c1c(Cl)cccc1Cl)SC3` (stereo unspecified), the TGI worked out at 35 µM in the experiment with HCC-2998 colon; 31.5 µM with PC-3 prostate; 46.8 µM in the experiment with OVCAR-8 ovarian; 32.1 µM with ACHN renal; 30.5 µM with OVCAR-4 ovarian; 25.8 µM in the experiment with SNB-75 CNS. In the experiment on UACC-257 melanoma, this molecule registered a TGI of 29.3 µM.

Consider `NC(=O)C(=CNC(=S)c1ccncc1)C(N)=O`, for which the TGI in the experiment on HCC-2998 colon, in the experiment with PC-3 prostate, with OVCAR-8 ovarian, in the experiment on ACHN renal, with OVCAR-4 ovarian and with UACC-257 melanoma was over 100 µM throughout. In the experiment on RPMI-8226 leukemia, this molecule returned a TGI of over 100 µM.

As to `CCOC(=O)/C(C#N)=N\Nc1ccc(-n2c(C)nc3ccccc3c2=O)cc1`, the TGI in the experiment on PC-3 prostate, in the experiment on OVCAR-8 ovarian, in the experiment on ACHN renal, in the experiment with SNB-75 CNS, with UACC-257 melanoma and in the experiment with RPMI-8226 leukemia was over 100 µM in each case.

As to `O=C(N/N=C/c1ccco1)c1cc(I)cc(I)c1O`, the TGI is over 50 µM in the experiment with PC-3 prostate; over 50 µM in the experiment on OVCAR-8 ovarian; over 50 µM in the experiment with ACHN renal; over 50 µM in the experiment on OVCAR-4 ovarian; over 50 µM in the experiment with SNB-75 CNS; 43 µM with RPMI-8226 leukemia.

With `CC1S/C(=N/c2nnc(-c3ccccc3)o2)NC1=O` (stereo unspecified), the TGI with PC-3 prostate, in the experiment with OVCAR-8 ovarian, with ACHN renal, with OVCAR-4 ovarian, in the experiment on UACC-257 melanoma and with RPMI-8226 leukemia was over 100 µM throughout.

With `CCOc1cc(-c2nc3ccccn3c2/N=C/c2cc(Br)ccc2O)ccc1O`, the TGI with PC-3 prostate is 73.3 µM; in the experiment on OVCAR-8 ovarian, 59.3 µM; with ACHN renal, over 100 µM; with OVCAR-4 ovarian, 38.7 µM; in the experiment on SNB-75 CNS, 31.3 µM; with UACC-257 melanoma, 53.5 µM. The TGI with RPMI-8226 leukemia is over 100 µM.

In the case of `CN(C)CCn1c(=O)c2ccc(NCCCN(C)CCCNc3ccc4c(=O)n(CCN(C)C)c(=O)n5c6ccc([N+](=O)[O-])cc6c(=O)c3c45)c3c(=O)c4cc([N+](=O)[O-])ccc4n(c1=O)c23`, the TGI turned out to be 0.0921 µM with HCC-2998 colon; 0.293 µM with PC-3 prostate; 0.431 µM in the experiment with OVCAR-8 ovarian; 1.21 µM in the experiment with ACHN renal; 0.0944 µM in the experiment with OVCAR-4 ovarian; 0.195 µM in the experiment on SNB-75 CNS. The TGI in the experiment on UACC-257 melanoma worked out at 2.13 µM.

Turning to `CCOn1c(C2(CC3CCN(C(=O)c4ccccc4)CC3)OCCO2)cc2ccccc21`, the TGI in the experiment with PC-3 prostate was determined as 26 µM; with OVCAR-8 ovarian, 29.2 µM; in the experiment with ACHN renal it was 27.9 µM; with OVCAR-4 ovarian, 29.9 µM; in the experiment on SNB-75 CNS it was 34.6 µM; in the experiment with UACC-257 melanoma, 23 µM. In the experiment with RPMI-8226 leukemia, this molecule registered a TGI of 28.1 µM.

On to `CC(C)(C)c1cc(/C=C(\C#N)C(=O)NCCO)cc(C(C)(C)C)c1O`, for which the TGI with PC-3 prostate was 46.7 µM; with OVCAR-8 ovarian it was over 100 µM; with ACHN renal, 76.5 µM; in the experiment on OVCAR-4 ovarian, 76.5 µM; in the experiment on SNB-75 CNS, 72.4 µM; in the experiment on UACC-257 melanoma it was 35 µM. The TGI in the experiment on RPMI-8226 leukemia came to 35.6 µM.

`CC1CC(=O)Nc2nc3ccccc3n21` (stereo unspecified): the TGI with PC-3 prostate, in the experiment on OVCAR-8 ovarian, with ACHN renal, in the experiment on OVCAR-4 ovarian, in the experiment with UACC-257 melanoma and in the experiment with RPMI-8226 leukemia was over 100 µM in each case.

In the case of `Cn1c([O-])nc(-n2cc[n+](C)c2)cc1=O`, the TGI in the experiment on PC-3 prostate, in the experiment on ACHN renal, with OVCAR-4 ovarian, in the experiment with UACC-257 melanoma and with RPMI-8226 leukemia was over 100 µM throughout.

Turning to `Cc1cc2ncc3c(=O)n(NS(=O)(=O)c4ccc(N)cc4)ccc3n2n1`, the TGI in the experiment on PC-3 prostate, with OVCAR-8 ovarian, in the experiment with ACHN renal, in the experiment on OVCAR-4 ovarian, with SNB-75 CNS and with UACC-257 melanoma was over 100 µM each time.

Take `COc1ccc(-c2c(C#N)c(N)nc3c2CCS(=O)(=O)c2ccccc2-3)cc1`: the TGI in the experiment on HCC-2998 colon, in the experiment with PC-3 prostate, with OVCAR-8 ovarian, in the experiment with ACHN renal, in the experiment on OVCAR-4 ovarian and in the experiment with SNB-75 CNS was over 100 µM each time. Further, the TGI with UACC-257 melanoma is over 100 µM.
